What follows are compounds tested on 3D7 P. falciparum strain (assay: P. falciparum 3D7 parasite proliferation assay (SYBR Green)). Settings: Plasmodium falciparum, Erythrocyte; 3D7 P. falciparum infected human erythrocytes, 72 hours, SYBR Green fluorescence; read-out: Pf3D7 Activity.
Format: cell-based
Description: The following assay illustrates the invention without in any way limiting the scope of the invention. This parasite proliferation assay measures the increase in parasite DNA content using a DNA intercalating dye, SYBR Green®. 3D7 P. falciparum strain is grown in complete culturing media until parasitemia reaches 3% to 8% with O+ human erythrocytes. 20 μl of screening media is dispensed into 384 well assay plates. 50 nl of compounds of the invention (in DMSO), including antimalarial controls (mefloquine, pyrimethamine and artemisinin), are then transferred into the assay plates, as well as DMSO alone to serve as a negative control for inhibition. Then 30 μl of a suspension of a 3D7 P. falciparum infected erythrocytes in screening media is dispensed into the assay plates such that the final hematocrit is 2.5% with a final parasitemia of 0.3%. The plates are placed in a 37° C. incubator for 72 hours in a low oxygen environment containing 93% N2, 4% CO2, and 3% O2 gas mixture. 10 μl of lysis buffer (saponin, triton-X, EDTA) containing a 10× solution of SYBR Green […] in RPMI media is dispensed into the plates. The plates are lidded and kept at room temperature overnight for the lysis of the infected red blood cells. The fluorescence intensity is measured (excitation […], emission 530 nm) using the Envision™ system (Perkin Elmer). The percentage inhibition of 50%, EC50, is calculated for each compound.
Work on `CC(C)(N)CNC(=O)c1cncc(-c2cc3cc(Cl)nc(Cl)c3[nH]2)n1` [Example 38, N-(2-amino-2-methylpropyl)-6-(5,7-dichloro-1H-pyrrolo[2,3-c]pyridin-2-yl)pyrazine-2-carboxamide] yielded an EC50 greater than 100 nM. Work on `CC(C)(N)CNC(=O)c1cncc(-c2cc3ccc(OC(F)(F)F)cc3[nH]2)n1` [Example 47, N-(2-amino-2-methylpropyl)-6-(6-(trifluoromethoxy)-1H-indol-2-yl)pyrazine-2-carboxamide] yielded an EC50 of 10 to 100 nM. `Cc1c(-c2cncc(C(=O)N[C@H]3CC[C@H](N)CC3)n2)[nH]c2ccc(OC(F)(F)F)cc12` [Example 65, N-((1r,4r)-4-aminocyclohexyl)-6-(3-methyl-5-(trifluoromethoxy)-1H-indol-2-yl)pyrazine-2-carboxamide] was tested, and the EC50 was 10 to 100 nM. `CC(C)(N)CNC(=O)c1cncc(-c2cc3sc(C(N)=O)cc3[nH]2)n1` [Example 108, 5-(6-((2-amino-2-methylpropyl)carbamoyl)pyrazin-2-yl)-4H-thieno[3,2-b]pyrrole-2-carboxamide] was tested, and the EC50 was greater than 100 nM. `Cc1c(-c2cncc(C(=O)NCC3(N)CCC3)n2)[nH]c2ccccc12` [Example 84, N-((1-aminocyclobutyl)methyl)-6-(3-methyl-1H-indol-2-yl)pyrazine-2-carboxamide] showed an EC50 of 10 to 100 nM. For `Cc1cc2[nH]c(-c3cncc(C(=O)NCC(C)(C)N)n3)c(C)c2s1` [Example 73, N-(2-amino-2-methylpropyl)-6-(2,6-dimethyl-4H-thieno[3,2-b]pyrrol-5-yl)pyrazine-2-carboxamide], the EC50 was 10 to 100 nM. With `Cc1c(-c2cncc(C(=O)NCC(C)(C)N)n2)[nH]c2ccc(Cl)cc12` [Example 12, N-(2-amino-2-methylpropyl)-6-(5-chloro-3-methyl-1H-indol-2-yl)pyrazine-2-carboxamide] the EC50 was 10 to 100 nM. `Cc1c(-c2cncc(C(=O)NC(C)(C)CN)n2)[nH]c2ccccc12` [Example 88, N-(1-amino-2-methylpropan-2-yl)-6-(3-methyl-1H-indol-2-yl)pyrazine-2-carboxamide] gave an EC50 of 10 to 100 nM. `Cc1c(-c2cncc(C(=O)NCC(N)C3CC3)n2)[nH]c2ccccc12` (stereo not shown) [Example 102] was tested, and the EC50 was 10 to 100 nM. Compound `CC(C)(N)CNC(=O)c1cncc(-c2cc3ccc(F)cc3[nH]2)n1` [Example 21, N-(2-amino-2-methylpropyl)-6-(6-fluoro-1H-indol-2-yl)pyrazine-2-carboxamide] has an EC50 of 10 to 100 nM. With `Cc1ccc2[nH]c(-c3cncc(C(=O)NCC(C)(C)N)n3)cc2c1` [Example 26, N-(2-amino-2-methylpropyl)-6-(5-methyl-1H-indol-2-yl)pyrazine-2-carboxamide] the EC50 was 10 to 100 nM. `Cc1ccc2c(C)c(-c3cncc(C(=O)NCC(C)(C)N)n3)[nH]c2c1` [Example 45, N-(2-Amino-2-methylpropyl)-6-(3,6-dimethyl-1H-indol-2-yl)pyrazine-2-carboxamide] showed an EC50 of less than 10 nM. With `CCOC(=O)c1cc2[nH]c(-c3cncc(C(=O)NCC(C)(C)N)n3)cc2s1` [Example 53, Ethyl 5-(6-((2-amino-2-methylpropyl)carbamoyl)pyrazin-2-yl)-4H-thieno[3,2-b]pyrrole-2-carboxylate] the EC50 was 10 to 100 nM. `Cc1c(-c2cncc(C(=O)N[C@@H]3CCCC[C@H]3N)n2)[nH]c2ccccc12` (racemic) [Example 101, (rac)-N-((1r,2r)-2-aminocyclohexyl)-6-(3-methyl-1H-indol-2-yl)pyrazine-2-carboxamide] gave an EC50 greater than 100 nM. Work on `Cc1c(-c2cncc(C(=O)NCC(C)(C)N)n2)[nH]c2cc(Cl)ccc12` [Example 7, N-(2-amino-2-methylpropyl)-6-(6-chloro-3-methyl-1H-indol-2-yl)pyrazine-2-carboxamide] yielded an EC50 of less than 10 nM. Work on `CC(C)(N)CNC(=O)c1cncc(-c2cc3cccc(F)c3[nH]2)n1` [Example 25, N-(2-amino-2-methylpropyl)-6-(7-fluoro-1H-indol-2-yl)pyrazine-2-carboxamide] yielded an EC50 of 10 to 100 nM. For `CC(C)c1c(-c2cncc(C(=O)NCC(C)(C)N)n2)[nH]c2ccc(OC(F)(F)F)cc12` [Example 16, N-(2-amino-2-methylpropyl)-6-(3-isopropyl-5-(trifluoromethoxy)-1H-indol-2-yl)pyrazine-2-carboxamide], the EC50 was 10 to 100 nM. Work on `COc1cccc2cc(-c3cncc(C(=O)NCC(C)(C)N)n3)[nH]c12` [Example 44, N-(2-amino-2-methylpropyl)-6-(7-methoxy-1H-indol-2-yl)pyrazine-2-carboxamide] yielded an EC50 greater than 100 nM. `CC(C)(N)CNC(=O)c1cncc(-c2cc3cc(F)c(Cl)cc3[nH]2)n1` [Example 14, N-(2-amino-2-methylpropyl)-6-(6-chloro-5-fluoro-1H-indol-2-yl)pyrazine-2-carboxamide] showed an EC50 of 10 to 100 nM. `CC(C)(N)CNC(=O)c1cncc(-c2cc3ccncc3[nH]2)n1` [Example 43, N-(2-amino-2-methylpropyl)-6-(1H-pyrrolo[2,3-c]pyridin-2-yl)pyrazine-2-carboxamide] gave an EC50 greater than 100 nM. For `Cc1c(-c2cncc(C(=O)NCC(C)(C)N)n2)[nH]c2cc(F)c(Cl)cc12` [Example 10, N-(2-amino-2-methylpropyl)-6-(5-chloro-6-fluoro-3-methyl-1H-indol-2-yl)pyrazine-2-carboxamide], the EC50 was less than 10 nM. Compound `Cc1c(-c2cncc(C(=O)NCC(N)C3CC3)n2)[nH]c2cc(Cl)c(F)cc12` (stereo not shown) [Example 79, N-(2-amino-2-cyclopropylethyl)-6-(6-chloro-5-fluoro-3-methyl-1H-indol-2-yl)pyrazine-2-carboxamide] has an EC50 of 10 to 100 nM. With `Cc1c(-c2cncc(C(=O)NCC(C)(C)N)n2)[nH]c2ccc(OC(F)F)cc12` [Example 70, N-(2-amino-2-methylpropyl)-6-(5-(difluoromethoxy)-3-methyl-1H-indol-2-yl)pyrazine-2-carboxamide] the EC50 was 10 to 100 nM. `Cc1c(-c2cncc(C(=O)N[C@@H]3CCCC[C@@H]3N)n2)[nH]c2ccccc12` (racemic) [Example 98, (rac)-N-((1r,2s)-2-aminocyclohexyl)-6-(3-methyl-1H-indol-2-yl)pyrazine-2-carboxamide] gave an EC50 greater than 100 nM. `Cc1c(-c2cncc(C(=O)NC34CC(N)(C3)C4)n2)[nH]c2ccc(OC(F)(F)F)cc12` [Example 64, N-(3-aminobicyclo[1.1.1]pentan-1-yl)-6-(3-methyl-5-(trifluoromethoxy)-1H-indol-2-yl)pyrazine-2-carboxamide] gave an EC50 of 10 to 100 nM. Work on `COc1cccc2[nH]c(-c3cncc(C(=O)NCC(C)(C)N)n3)cc12` [Example 30, N-(2-amino-2-methylpropyl)-6-(4-methoxy-1H-indol-2-yl)pyrazine-2-carboxamide] yielded an EC50 greater than 100 nM. For `CC(C)(N)CNC(=O)c1cncc(-c2cc3cc(Cl)ncc3[nH]2)n1` [Example 39, N-(2-amino-2-methylpropyl)-6-(5-chloro-1H-pyrrolo[2,3-c]pyridin-2-yl)pyrazine-2-carboxamide], the EC50 was greater than 100 nM. Compound `Cc1c(-c2cncc(C(=O)NCC(C)(C)N)n2)[nH]c2ccccc12` [Example 83, N-(2-amino-2-methylpropyl)-6-(3-methyl-1H-indol-2-yl)pyrazine-2-carboxamide] has an EC50 of 10 to 100 nM. In the case of `Cc1ccc2cc(-c3cncc(C(=O)NCC(C)(C)N)n3)[nH]c2c1` [Example 23, N-(2-amino-2-methylpropyl)-6-(6-methyl-1H-indol-2-yl)pyrazine-2-carboxamide], the EC50 is reported as 10 to 100 nM. Compound `CC(C)(N)CNC(=O)c1cncc(-c2cc3cc(Cl)cc(F)c3[nH]2)n1` [Example 13, N-(2-amino-2-methylpropyl)-6-(5-chloro-7-fluoro-1H-indol-2-yl)pyrazine-2-carboxamide] has an EC50 of 10 to 100 nM. `Cc1c(-c2cncc(C(=O)NCCCN)n2)[nH]c2ccccc12` [Example 90, N-(3-aminopropyl)-6-(3-methyl-1H-indol-2-yl)pyrazine-2-carboxamide] showed an EC50 greater than 100 nM. `Cc1c(-c2cncc(C(=O)NCC(C)(C)N)n2)[nH]c2cc(OC(F)F)ccc12` [Example 69, N-(2-Amino-2-methylpropyl)-6-(6-(difluoromethoxy)-3-methyl-1H-indol-2-yl)pyrazine-2-carboxamide] gave an EC50 of 10 to 100 nM. `Cc1c(-c2cncc(C(=O)NCC(C)(C)N)n2)[nH]c2cc(S(F)(F)(F)(F)F)ccc12` [Example 9, N-(2-amino-2-methylpropyl)-6-(3-methyl-6-(pentafluoro-[…]^6-sulfaneyl)-1H-indol-2-yl)pyrazine-2-carboxamide] showed an EC50 of less than 10 nM. For `CC(C)(N)CNC(=O)c1cncc(-c2cc3cc(OC(F)(F)F)ccc3[nH]2)n1` [Example 2, N-(2-Amino-2-methylpropyl)-6-(5-(trifluoromethoxy)-1H-indol-2-yl)pyrazine-2-carboxamide], the EC50 was 10 to 100 nM. In the case of `Cc1c(-c2cncc(C(=O)NCC(C)(C)N)n2)[nH]c2ccc(OC(F)(F)F)cc12` [Example 5, N-(2-amino-2-methylpropyl)-6-(3-methyl-5-(trifluoromethoxy)-1H-indol-2-yl)pyrazine-2-carboxamide], the EC50 is reported as less than 10 nM. Compound `CCc1c(-c2cncc(C(=O)NCC(C)(C)N)n2)[nH]c2ccccc12` [Example 50, N-(2-amino-2-methylpropyl)-6-(3-ethyl-1H-indol-2-yl)pyrazine-2-carboxamide] has an EC50 of 10 to 100 nM. With `CC(C)(N)CNC(=O)c1cncc(-c2cc3cc(F)ccc3[nH]2)n1` [Example 27, N-(2-amino-2-methylpropyl)-6-(5-fluoro-1H-indol-2-yl)pyrazine-2-carboxamide] the EC50 was 10 to 100 nM.

— patent publication US20250197376A1, “PYRAZINE AMIDE DERIVATIVES” (Novartis AG, priority 2022, published 2025)
